Where two headings read alike, the source gives them in different places.
What was measured:
human recombinant CB1 = biological target: T1, human recombinant CB1 (Homo sapiens, UniProt P21554); assay: CB1R radioligand binding on membranes from HEK293 cells over-expressing CB1
T1 construct: purchased Perkin-Elmer; host or cells: HEK293
Experimental: (§1) Terpenoid compounds of formula (I), (II) or (III) above were evaluated for their ability to activate Cannabinoid Receptor 1 (CB1R) and Cannabinoid Receptor 2 (CB2R). Their ClogP values were also measured.
CB1R experiments were performed using membranes from HEK293 cells over-expressing human recombinant CB1, as described by the manufacturer (Perkin-Elmer) and using [3H]CP-55,490 as the radioligand.
(§2) Data of active compounds are expressed in Ki (mM) and are means ±SEM of n=3 determinations.
(§3) The values that are stated for each of the compounds is an EC50 value. This is defined as the molar concentration of an agonist, which produces 50% of the maximum possible response for that agonist. The values documented are in micromolar units.

human recombinant CB2 = biological target: T2, human recombinant CB2 (Homo sapiens, UniProt P34972); assay: CB2R radioligand binding on membranes from HEK293 cells over-expressing CB2
T2 construct: purchased Perkin-Elmer; host or cells: HEK293
Experimental: as §1
CB2R experiments were performed using membranes from HEK293 cells over-expressing human recombinant CB2, as described by the manufacturer (Perkin-Elmer), and using [3H]CP-55,495 as the radioligand.
as §2, §3

[1] = HEK293 membranes, [3H]CP-55,490 radioligand, means of n=3, read-out: CB1R Activity
[2] = HEK293 membranes, [3H]CP-55,495 radioligand, means of n=3, dash = greater than 25 micromolar, read-out: CB2R Activity

T1 sequence (P21554 whole entry): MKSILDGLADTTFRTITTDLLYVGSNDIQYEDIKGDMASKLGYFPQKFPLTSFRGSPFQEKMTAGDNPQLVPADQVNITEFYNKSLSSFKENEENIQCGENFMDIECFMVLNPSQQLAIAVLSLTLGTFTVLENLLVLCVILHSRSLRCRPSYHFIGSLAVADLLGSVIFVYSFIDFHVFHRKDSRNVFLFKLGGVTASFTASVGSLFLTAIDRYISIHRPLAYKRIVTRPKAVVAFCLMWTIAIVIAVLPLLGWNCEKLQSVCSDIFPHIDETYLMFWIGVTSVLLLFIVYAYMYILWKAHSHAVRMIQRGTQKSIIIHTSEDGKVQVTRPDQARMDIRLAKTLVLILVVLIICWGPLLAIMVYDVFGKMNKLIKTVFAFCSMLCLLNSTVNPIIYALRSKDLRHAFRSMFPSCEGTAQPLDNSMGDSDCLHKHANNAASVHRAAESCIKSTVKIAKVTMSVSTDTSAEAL
T2 sequence (P34972 whole entry): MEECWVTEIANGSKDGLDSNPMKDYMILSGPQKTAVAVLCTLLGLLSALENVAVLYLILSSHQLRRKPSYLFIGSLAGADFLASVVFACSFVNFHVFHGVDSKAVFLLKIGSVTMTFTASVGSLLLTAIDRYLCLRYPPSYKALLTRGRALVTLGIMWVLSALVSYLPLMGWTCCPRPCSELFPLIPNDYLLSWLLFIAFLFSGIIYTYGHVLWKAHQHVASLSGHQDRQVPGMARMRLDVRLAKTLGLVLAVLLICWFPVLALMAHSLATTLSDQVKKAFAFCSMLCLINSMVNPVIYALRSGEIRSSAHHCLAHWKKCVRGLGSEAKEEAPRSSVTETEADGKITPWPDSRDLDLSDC

isophaseollin [Example 2]
activation of Cannabinoid Receptor 1 (CB1R), in words (human recombinant CB1): can activate | EC50 (human recombinant CB1; [1]): 15.5 µM | activation of Cannabinoid Receptor 2 (CB2R), in words (human recombinant CB2): can activate | EC50 (human recombinant CB2; [2]): 22.3 µM

C=C(C)C1Cc2c(cc(O)c3c2OC2C(O)Oc4cc(OC)c(OC)cc4C2C3=O)O1 (centres unmarked) [Example 1, 6-hydroxysumatrol]
EC50 (human recombinant CB1; [1]): 17.1 µM | EC50 (human recombinant CB2; [2]): > 25 µM

COc1cc(C2Oc3ccc(C4CC(=O)c5c(O)cc(O)cc5O4)cc3OC2CO)ccc1O (centres unmarked) [Example 3, silandrin]
EC50 (human recombinant CB1): 22 µM | EC50 (human recombinant CB2): > 25 µM

From US20080255082A1, “Hair and/or Scalp Care Compositions Incorporating Terpenoid Compounds” (priority 2005, published 2008)
